Values joined by “and” are separate entries in the source; they are usually repeats but may differ in a detail not shown here. Identical values can stand only once.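 Five compound concentrations were applied to cells in 96-well plates for 48 hours; endpoints were derived by simple linear interpolation of the resulting dose-response curve. GI50 marks 50% less growth. TGI: concentration producing complete growth inhibition.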
Experiments:
Assay in all cases: inhibition of tumour cell growth, NCI panel, 48 h
ACHN renal = system: ACHN renal
BT-549 breast = system: BT-549 breast
DU-145 prostate = system: DU-145 prostate
HCT-15 colon = system: HCT-15 colon
MCF7 breast = system: MCF7 breast
MDA-MB-231 breast = system: MDA-MB-231 breast
RXF 393 renal = system: RXF 393 renal
SK-OV-3 ovarian = system: SK-OV-3 ovarian
SR leukemia = system: SR leukemia
UACC-257 melanoma = system: UACC-257 melanoma

Compound | GI50 (ACHN renal) | TGI (ACHN renal) | GI50 (BT-549 breast) | TGI (BT-549 breast) | GI50 (DU-145 prostate) | TGI (DU-145 prostate) | GI50 (HCT-15 colon) | TGI (HCT-15 colon) | GI50 (MCF7 breast) | TGI (MCF7 breast) | GI50 (MDA-MB-231 breast) | TGI (MDA-MB-231 breast) | GI50 (RXF 393 renal) | TGI (RXF 393 renal) | GI50 (SK-OV-3 ovarian) | TGI (SK-OV-3 ovarian) | GI50 (SR leukemia) | TGI (SR leukemia) | GI50 (UACC-257 melanoma) | TGI (UACC-257 melanoma)
C=C1CC2(OC1=O)C(=O)Nc1ccccc12 (configuration not stated) | 1090 nM | 2290 nM | 4240 nM | 17100 nM | 2540 nM | 8470 nM | 1510 nM | 3690 nM | 2140 nM | 6170 nM | 4620 nM | 17000 nM | 1450 nM | 2900 nM | 26700 nM | > 100000 nM | 1320 nM | 6030 nM | 1740 nM | 4240 nM
C#CCOc1cccc(Nc2ncnc3cc(NC(=O)CCl)ccc23)c1 | 4900 nM | 18000 nM | 6080 nM | 20300 nM | 10000 nM | 21600 nM | 1510 nM | 6800 nM | 1950 nM | 7990 nM | 5280 nM | 19900 nM | 13200 nM | 27700 nM | 4360 nM | 17200 nM | 490 nM | 5590 nM | 15400 nM | 32300 nM
COc1ccc2c(c1)C(=O)c1c-2n(CCCI)c(=O)c2cc([N+](=O)[O-])ccc12 | 138 nM and 29.3 nM | 1030 nM and 239 nM | 112 nM and 786 nM |  | 54.1 nM and 34.1 nM | 172 nM and 811 nM | 1050 nM and 1130 nM | 50000 nM and 28000 nM | 10.5 nM and 34.3 nM |  | 12900 nM and 22900 nM | 50000 nM and > 100000 nM | 319 nM and 789 nM | 3570 nM and 13800 nM | 230 nM and 480 nM |  | 5 nM | 88.8 nM and 143 nM | 914 nM and 4130 nM | 17400 nM and 37900 nM
COc1cc(Nc2ncc(F)c(Nc3ccc4c(n3)N(COP(=O)(O)O)C(=O)C(C)(C)O4)n2)cc(OC)c1OC | 1120 nM and 1210 nM | 12200 nM and > 10000 nM | 1560 nM and 1570 nM | 4450 nM and 6500 nM | 3690 nM and 3080 nM | 22300 nM and > 10000 nM | 2450 nM and 3220 nM | > 100000 nM | 3020 nM and 3320 nM | 22600 nM and > 10000 nM | 1670 nM and 1350 nM | 5070 nM and 7690 nM | 100 nM and 256 nM | 621 nM and 936 nM | 972 nM and 707 nM | 3460 nM and 2980 nM | 2930 nM and 2970 nM | > 36500 nM | 10600 nM and 5570 nM | > 90700 nM
CC(=O)OCc1cc2ccccc2nc1C(Br)(Br)Br |  | 27300 nM |  | 27200 nM |  | 23900 nM |  | 54700 nM |  | 30700 nM |  | 44900 nM |  | 33400 nM |  | 86600 nM |  | 13700 nM |  | 27000 nM
Cc1ncc(C(=O)Nc2ccc(CN3CCN(C)CC3)c(C(F)(F)F)c2)cc1C#Cc1cnc(N)cc1C#N | 189 nM | 2000 nM | 1360 nM | 3580 nM | 278 nM | 2750 nM | 548 nM | 2710 nM | 1690 nM | 4480 nM | 222 nM | 1920 nM | 227 nM | 1470 nM | 401 nM | 1800 nM | 406 nM | 6270 nM | 288 nM | 3120 nM
COc1ccc(-c2ccc(-c3ccc(C(=N)N)o3)o2)cc1 | 1800 nM | 4200 nM | 4550 nM | 16900 nM | 1910 nM | 4860 nM | 675 nM | 4720 nM | 325 nM | 1570 nM | 1900 nM | 4280 nM | 2120 nM | 8810 nM | 5630 nM | 18700 nM | 417 nM | 2790 nM | 11100 nM | 24700 nM
COC(=O)CC[C@H](Cc1ccccc1)NC(=O)c1csc([C@@H](C[C@H](C(C)C)N(C)C(=O)[C@@H](NC(=O)[C@H]2CCCCN2C)C(C)C)OC(C)=O)n1 | 13 nM | 21400 nM | 2.75 nM | 137 nM | < 2.5 nM | > 25000 nM | 6.85 nM | > 25000 nM | < 2.5 nM | > 25000 nM | 5.7 nM | > 25000 nM | < 2.5 nM | > 25000 nM | < 2.5 nM | > 25000 nM | < 2.5 nM | > 8500 nM | > 25000 nM | > 25000 nM
CN(C)c1ccc(/C=C/c2cc[n+](C)c(/C=C/c3ccc(N(C)C)cc3)c2)cc1 | 401 nM | 2400 nM | 349 nM | 1610 nM | 398 nM | 11000 nM | 904 nM | 9740 nM | 272 nM | 1130 nM | 322 nM | 1280 nM | 389 nM | 1910 nM | 270 nM | 1390 nM | 309 nM | 2450 nM | 275 nM | 853 nM

— PubChem BioAssay (NCI)
